{
  "source": "patent US6407099B1",
  "about": "“Arylpiperidinopropanol and arylpiperazinopropanol derivatives and pharmaceuticals containing the same” (Suntory Limited, priority 1997, dated 2002)",
  "key": {"DBA/2N type mice": {"tested_on": "DBA/2N type mice", "experiment": "Audiogenic seizure suppressing effect", "assay_type": "in vivo", "conditions": "Mus musculus, ip, 20 min, compound 10 mg/kg, i.p.; audio stimulus after 20 minutes; seizure score; read-out: Antiseizure effect (suppression rate %)", "description": "Audiogenic Seizure Suppressing Effect\nThe audiogenic seizure suppressing effect of the compounds was evaluated by the method of Sarro et al. [G. B. De Sarro et al., Br. J. Pharmacol., 93, 247 (1988)]. That is, the compound dissolved in 10% 2-hydroxypropyl-β-cyclodextrin was administered intraperitoneally to DBA/2N type mice (male, 3 weeks old). After 20 minutes, a supersonic washer was used to apply audio stimulus of at least 90 dB for 1 minute. The wild running (WR), clonic seizures (clonus), tonic seizures (tonus), and the respiratory arrest (RA) were observed. The seizure suppressing effect was evaluated from the rate of suppression of the average value of the seizure score found as 0=no response, 1=WR, 2=clonus, 3=tonus, and 4=RA."}, "Acute toxicity test": {"experiment": "Acute toxicity test", "conditions": "male, mouse, in vivo, iv, ddY mice, death rate up to 24 hours after administration", "description": "A pharmaceutical preparation was administered intravenously to ddY mice (male, 6 weeks old). The 50% lethal dosage LD50 of the acute toxicity was calculated by an ordinary method from the death rate up to 24 hours after administration."}, "Dopamine D2 receptor": {"target": "T1, Dopamine D2 receptor (Rattus norvegicus, UniProt P61169)", "T1 construct": "membrane fraction prepared from the striatum of Wistar male rats; from tissue; host or cells: rat striatum membrane fraction", "T1 sequence (P61169 whole entry)": "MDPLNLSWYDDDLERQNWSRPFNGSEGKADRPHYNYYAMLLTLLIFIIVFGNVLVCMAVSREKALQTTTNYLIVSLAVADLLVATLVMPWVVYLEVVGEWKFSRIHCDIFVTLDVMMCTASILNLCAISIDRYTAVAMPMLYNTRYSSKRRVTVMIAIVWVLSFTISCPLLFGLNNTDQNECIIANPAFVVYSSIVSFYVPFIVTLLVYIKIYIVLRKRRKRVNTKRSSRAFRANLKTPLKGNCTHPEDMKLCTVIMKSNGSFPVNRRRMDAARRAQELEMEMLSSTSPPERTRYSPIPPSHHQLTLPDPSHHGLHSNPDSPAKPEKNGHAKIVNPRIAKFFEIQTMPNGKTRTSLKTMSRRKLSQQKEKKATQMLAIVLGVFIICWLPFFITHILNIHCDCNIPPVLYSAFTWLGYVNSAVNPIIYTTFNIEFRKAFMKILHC", "experiment": "Dopamine D2 receptor blocking action ([^3H] raclopride, striatum membrane fraction)", "assay_type": "binding, Wistar male rats", "conditions": "1.0 nM [^3H] raclopride, 25° C., 1 hour", "description": "Dopamine D2 Receptor Blocking Action\n57 μl of the membrane fraction prepared from the striatum of Wistar male rats (6 weeks old) was incubated together with the compound and 1.0 nM [^3H] raclopride in a buffer at 25° C. for 1 hour. A GF/C glass filter (0.1% polyethylene imine treatment) was used for B/F separation. A beta plate was used for measurement of the radioactivity to evaluate the effect of the compound."}, "lipid peroxidation": {"tested_on": "lipid peroxidation", "experiment": "Lipid peroxidation suppressing effect (brain membrane preparation, malonaldehyde and 4-hydroxyalkenals)", "assay_type": "biochemical, Wistar rats", "conditions": "rat brain membrane preparation, 37° C., 30 minutes", "description": "Lipid Peroxidation Suppressing Effect\nThe whole brains of Wistar rats (10 weeks old, male) were excised and homogenized in the 10 times volumes of 50 mM phosphate-buffered solution (pH=7.4) (hereinafter referred to as PBS). The centrifuged supernatent was further diluted fourfold and the result was used as the brain membrane preparation. The membrane preparation was incubated in the presence of vehicle (0.5% DMSO) or compound at 37° C. for 30 minutes and an automatic oxidation reaction promoted. The reaction was stopped by 35% perchloric acid, then the total of the main decomposition products of the peroxidized lipids present in the centrifuged supernatent, that is, malonaldehyde and 4-hydroxyalkenals, was measured using a BIOXYTECH®/LPO-586™ peroxidized lipid colorimetric assay kit (OXIS International, Inc.) and used as an indicator of the lipid peroxidation."}, "T-type Ca^2+ channel": {"tested_on": "T-type Ca^2+ channel", "experiment": "T-type calcium channel inhibitory effect (whole-cell patch clamp, hippocampal CA1 pyramidal cells)", "assay_type": "cell-based, Wistar rats", "conditions": "rat hippocampal CA1 pyramidal cells; peak current after 1 minute of application", "description": "T-Type Calcium Channel Inhibitory Effect\nThe hippocampal CA1 pyramidal cells were isolated from Wistar rats (female, 1 week old) in according to the method reported by Takahashi et al. [K. Takahashi et al.; J. Pharmacol. Exp. Ther., 256, 169 (1991)] and the T-type calcium current was measured under conditions of a fixed membrane potential using the whole-cell configuration of the patch clamp technique. The effects of the compounds were evaluated from the rate of suppression of the peak current after 1 minute of application using the concentration clamp method."}, "Sodium channel": {"tested_on": "Sodium channel", "experiment": "Inhibitory effect of veratrizine-induced sodium channel activity (synaptozome membrane potential, Rhodamine 6G)", "assay_type": "biochemical, Wistar rats", "conditions": "compound 0.1 μM; rat brain synaptozomes, veratrizine-induced depolarization", "source_text": "Inhibitory Effect of Veratrizine-induced Sodium Channel Activity"}},
  "data": [
    {"compound": "COc1ccc(N)cc1OC[C@@H](O)CN1CCC(c2ccc(Oc3ccccc3)cc2)CC1", "note": "[Compound 41, (2S)-1-[(5-amino-2-methoxy)phenoxy]-3-[4-(4-phenoxyphenyl)piperidin-1-yl]-2-propanol]", "values": [
      {"measurement": "inhibition in vivo at 10 mg/kg", "setting": "DBA/2N type mice", "result": 60, "unit": "%"},
      {"measurement": "LD50 at 24 h", "setting": "Acute toxicity test", "result": 36.7, "unit": "mg/kg"},
      {"measurement": "IC50", "setting": "Dopamine D2 receptor", "result": 11, "unit": "µM"},
      {"measurement": "IC50", "setting": "lipid peroxidation", "result": 0.87, "unit": "µM"},
      {"measurement": "IC50", "setting": "T-type Ca^2+ channel", "result": 4, "unit": "µM"},
      {"measurement": "Anti-veratrizine effect (inhibiting rate %)", "setting": "Sodium channel", "result": 22.1, "unit": "%"}
    ]}
  ]
}
